Test results: article PMC6704710, “Preclinical evaluation of 3D185, a novel potent inhibitor of FGFR1/2/3 and CSF-1R, in FGFR-dependent and macrophage-dominant cancer models” (Journal of Experimental & Clinical Cancer Research : CR, 2019)

Legend:
FGFR1(V561M)(h) = FGFR1(V561M)(h) (Homo sapiens, UniProt P11362, V561M); experiment: Eurofins kinase panel; assay type: biochemical
CaMKI(h) = target: T1, CaMKI(h) (Homo sapiens, UniProt Q14012); experiment: Eurofins kinase panel; assay type: biochemical; conditions: read-out: Inhibition rate (%)
T1 construct: purchased Eurofins (KinaseProfiler)

CDK2/cyclinE(h) = target: T2, CDK2/cyclinE(h) (Homo sapiens, UniProt P24941); experiment: Eurofins kinase panel; assay type: biochemical; conditions: read-out: Inhibition rate (%)
T2 construct: purchased Eurofins (KinaseProfiler)

CDK12/cyclinK(h) = target: T3, CDK12/cyclinK(h) (Homo sapiens, UniProt Q9NYV4); experiment: Eurofins kinase panel; assay type: biochemical; conditions: read-out: Inhibition rate (%)
T3 construct: purchased Eurofins (KinaseProfiler)

CHK2(R145W)(h) = target: T4, CHK2(R145W)(h) (Homo sapiens, UniProt O96017, R145W); experiment: Eurofins kinase panel; assay type: biochemical; conditions: read-out: Inhibition rate (%)
T4 construct: purchased Eurofins (KinaseProfiler)

CLK2(h) = target: T5, CLK2(h) (Homo sapiens, UniProt P49760); experiment: Eurofins kinase panel; assay type: biochemical; conditions: read-out: Inhibition rate (%)
T5 construct: purchased Eurofins (KinaseProfiler)

cKit(h) = target: T6, cKit(h) (Homo sapiens, UniProt P10721); experiment: Eurofins kinase panel; assay type: biochemical; conditions: read-out: Inhibition rate (%)
T6 construct: purchased Eurofins (KinaseProfiler)

EphA2(h) = target: T7, EphA2(h) (Homo sapiens, UniProt P29317); experiment: Eurofins kinase panel; assay type: biochemical; conditions: read-out: Inhibition rate (%)
T7 construct: purchased Eurofins (KinaseProfiler)

GRK2(h) = target: T8, GRK2(h) (Homo sapiens, UniProt P25098); experiment: Eurofins kinase panel; assay type: biochemical; conditions: read-out: Inhibition rate (%)
T8 construct: purchased Eurofins (KinaseProfiler)
T8 sequence (P25098 1-689): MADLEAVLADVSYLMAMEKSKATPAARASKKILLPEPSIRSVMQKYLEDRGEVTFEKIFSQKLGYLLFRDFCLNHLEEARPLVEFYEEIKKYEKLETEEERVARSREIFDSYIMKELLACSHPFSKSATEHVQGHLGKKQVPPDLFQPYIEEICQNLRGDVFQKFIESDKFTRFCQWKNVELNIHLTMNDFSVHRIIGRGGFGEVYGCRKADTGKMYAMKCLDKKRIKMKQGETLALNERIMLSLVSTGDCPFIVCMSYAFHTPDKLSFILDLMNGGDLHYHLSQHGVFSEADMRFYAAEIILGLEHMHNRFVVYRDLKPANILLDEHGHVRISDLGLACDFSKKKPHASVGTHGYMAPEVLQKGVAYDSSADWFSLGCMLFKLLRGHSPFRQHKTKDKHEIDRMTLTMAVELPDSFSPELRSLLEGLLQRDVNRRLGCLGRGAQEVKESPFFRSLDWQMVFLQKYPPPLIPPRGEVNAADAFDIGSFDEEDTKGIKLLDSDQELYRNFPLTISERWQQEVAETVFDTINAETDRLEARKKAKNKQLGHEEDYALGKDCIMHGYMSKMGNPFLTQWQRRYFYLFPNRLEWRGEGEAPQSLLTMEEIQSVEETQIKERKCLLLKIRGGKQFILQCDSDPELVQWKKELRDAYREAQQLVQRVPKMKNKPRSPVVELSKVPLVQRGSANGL

MAPKAP-K2(h) = target: T9, MAPKAP-K2(h) (Homo sapiens, UniProt P49137); experiment: Eurofins kinase panel; assay type: biochemical; conditions: read-out: Inhibition rate (%)
T9 construct: purchased Eurofins (KinaseProfiler)

PKR(h) = target: T10, PKR(h) (Homo sapiens, UniProt P19525); experiment: Eurofins kinase panel; assay type: biochemical; conditions: read-out: Inhibition rate (%)
T10 construct: purchased Eurofins (KinaseProfiler)

TSSK4(h) = target: T11, TSSK4(h) (Homo sapiens, UniProt Q6SA08); experiment: Eurofins kinase panel; assay type: biochemical; conditions: read-out: Inhibition rate (%)
T11 construct: purchased Eurofins (KinaseProfiler)
T11 sequence (Q6SA08 1-328): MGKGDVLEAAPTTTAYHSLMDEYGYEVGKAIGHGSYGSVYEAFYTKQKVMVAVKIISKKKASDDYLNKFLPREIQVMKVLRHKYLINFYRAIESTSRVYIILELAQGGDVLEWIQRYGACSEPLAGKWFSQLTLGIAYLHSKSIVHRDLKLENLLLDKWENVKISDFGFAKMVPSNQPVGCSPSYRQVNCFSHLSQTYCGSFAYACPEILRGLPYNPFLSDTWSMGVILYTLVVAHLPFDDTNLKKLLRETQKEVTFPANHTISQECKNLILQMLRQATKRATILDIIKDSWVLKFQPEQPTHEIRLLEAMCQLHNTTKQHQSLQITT

M-NFS-60 = experiment: Cell proliferation assay; assay type: cell-based, mouse; conditions: Mus musculus; 72 h, mean ± SD
Procedure: The cancer cell lines indicated in Figure 3 were seeded in 96-well plates at a low density in growth medium. The next day, appropriate controls or the designated concentrations of the compounds were added to each well, and the cells were incubated for 72 h. HUVECs (passage 3) were seeded in 96-well plates in growth medium overnight and transferred to serum-free medium for 24 h. The following day, appropriate controls or the designated concentrations of the compounds were added to each well, and 100 ng/mL growth factor (bFGF or VEGF) was added to the indicated wells. The cells were incubated for 48 h. Finally, cell proliferation was determined using a sulforhodamine B (SRB) assay or a cell counting kit-8 (CCK-8) assay. […] IC50 values for proliferation curves were calculated using a 4-parameter logistic nonlinear regression model with SoftMax Pro Software (Molecular Devices, San Jose, USA).

[1] = system: MC38 colorectal adenocarcinoma model; experiment: In vivo antitumor activity, MC38 model; set-up: species or system C57BL/6 mice; conditions: oral once daily 23 days
Procedure: For the MC38 xenograft model, 6-week-old C57BL/6 mice were housed and maintained under specific pathogen-free conditions. Tumor cells (2 × 10^6 in 200 μL) were injected subcutaneously (s.c.) into the right flanks of C57BL/6 mice. […] The tumors were measured twice per week using a microcaliper. Tumor volume (TV) was calculated as follows: TV = (length × width^2)/2. In addition, the individual relative tumor volume (RTV) was calculated as follows: RTV = Vt / V0, where Vt is the volume on a particular day and V0 is the volume at the beginning of the treatment. The RTV is shown on the indicated days as the […] ± SEM for the indicated groups of mice.

T7 sequence (P29317 24-976): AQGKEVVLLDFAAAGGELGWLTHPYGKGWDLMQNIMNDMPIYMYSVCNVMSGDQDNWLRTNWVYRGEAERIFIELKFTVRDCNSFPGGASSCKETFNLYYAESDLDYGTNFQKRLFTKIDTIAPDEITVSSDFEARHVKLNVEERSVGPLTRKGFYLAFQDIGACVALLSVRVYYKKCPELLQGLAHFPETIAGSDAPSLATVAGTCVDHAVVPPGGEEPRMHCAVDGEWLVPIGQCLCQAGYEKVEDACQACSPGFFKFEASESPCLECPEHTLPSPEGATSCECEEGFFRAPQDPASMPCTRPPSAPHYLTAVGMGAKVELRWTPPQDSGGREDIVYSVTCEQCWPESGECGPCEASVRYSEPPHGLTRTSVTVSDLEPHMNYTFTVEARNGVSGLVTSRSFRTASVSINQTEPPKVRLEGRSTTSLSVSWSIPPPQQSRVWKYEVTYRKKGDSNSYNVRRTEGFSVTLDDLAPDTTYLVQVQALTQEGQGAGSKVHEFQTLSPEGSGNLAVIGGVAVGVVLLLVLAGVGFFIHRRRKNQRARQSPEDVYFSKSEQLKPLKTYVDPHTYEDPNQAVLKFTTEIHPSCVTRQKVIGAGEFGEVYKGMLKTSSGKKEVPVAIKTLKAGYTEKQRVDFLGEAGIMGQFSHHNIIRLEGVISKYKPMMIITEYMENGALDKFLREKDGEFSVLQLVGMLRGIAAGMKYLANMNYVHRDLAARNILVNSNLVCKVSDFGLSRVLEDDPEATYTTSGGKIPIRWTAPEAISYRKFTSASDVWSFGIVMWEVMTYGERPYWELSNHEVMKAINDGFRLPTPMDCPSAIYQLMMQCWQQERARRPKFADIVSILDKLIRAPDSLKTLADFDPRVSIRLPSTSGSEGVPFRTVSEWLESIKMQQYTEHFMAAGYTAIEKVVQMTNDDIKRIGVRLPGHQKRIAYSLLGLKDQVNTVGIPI
T6 sequence (P10721 26-976): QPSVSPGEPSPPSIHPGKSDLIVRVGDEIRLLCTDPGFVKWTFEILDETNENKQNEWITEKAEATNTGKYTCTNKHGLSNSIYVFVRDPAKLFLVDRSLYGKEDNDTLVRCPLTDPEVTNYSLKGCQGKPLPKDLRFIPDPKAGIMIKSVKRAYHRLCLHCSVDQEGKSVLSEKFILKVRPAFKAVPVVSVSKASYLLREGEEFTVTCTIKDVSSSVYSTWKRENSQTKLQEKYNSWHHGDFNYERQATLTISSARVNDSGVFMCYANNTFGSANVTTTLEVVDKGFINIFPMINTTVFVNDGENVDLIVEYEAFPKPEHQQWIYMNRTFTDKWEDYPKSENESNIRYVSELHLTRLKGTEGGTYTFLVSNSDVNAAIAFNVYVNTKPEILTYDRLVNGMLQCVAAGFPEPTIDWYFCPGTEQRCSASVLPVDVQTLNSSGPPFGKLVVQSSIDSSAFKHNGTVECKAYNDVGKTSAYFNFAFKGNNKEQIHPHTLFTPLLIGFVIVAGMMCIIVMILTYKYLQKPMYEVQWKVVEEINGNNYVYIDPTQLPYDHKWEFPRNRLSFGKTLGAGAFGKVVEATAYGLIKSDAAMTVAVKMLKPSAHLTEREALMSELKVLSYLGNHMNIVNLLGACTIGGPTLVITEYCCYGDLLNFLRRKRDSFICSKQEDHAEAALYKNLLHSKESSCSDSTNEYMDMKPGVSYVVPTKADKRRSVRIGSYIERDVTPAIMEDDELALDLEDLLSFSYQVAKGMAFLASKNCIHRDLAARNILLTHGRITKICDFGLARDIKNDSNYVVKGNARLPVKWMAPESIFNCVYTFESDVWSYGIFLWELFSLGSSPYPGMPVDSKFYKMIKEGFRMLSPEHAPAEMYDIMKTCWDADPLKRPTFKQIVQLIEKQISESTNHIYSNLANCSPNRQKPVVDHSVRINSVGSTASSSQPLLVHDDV
T1 sequence (Q14012 whole entry): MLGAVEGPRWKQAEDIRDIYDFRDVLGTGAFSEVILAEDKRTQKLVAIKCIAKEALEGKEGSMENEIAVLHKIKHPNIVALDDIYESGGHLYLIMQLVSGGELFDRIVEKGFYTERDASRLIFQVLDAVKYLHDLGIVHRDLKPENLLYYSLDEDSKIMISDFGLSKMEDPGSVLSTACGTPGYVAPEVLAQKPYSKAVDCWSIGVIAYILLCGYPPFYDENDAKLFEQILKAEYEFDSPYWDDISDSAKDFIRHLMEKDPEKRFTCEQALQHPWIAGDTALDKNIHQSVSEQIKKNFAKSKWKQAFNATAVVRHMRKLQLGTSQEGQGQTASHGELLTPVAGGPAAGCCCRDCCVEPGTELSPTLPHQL
T9 sequence (P49137 whole entry): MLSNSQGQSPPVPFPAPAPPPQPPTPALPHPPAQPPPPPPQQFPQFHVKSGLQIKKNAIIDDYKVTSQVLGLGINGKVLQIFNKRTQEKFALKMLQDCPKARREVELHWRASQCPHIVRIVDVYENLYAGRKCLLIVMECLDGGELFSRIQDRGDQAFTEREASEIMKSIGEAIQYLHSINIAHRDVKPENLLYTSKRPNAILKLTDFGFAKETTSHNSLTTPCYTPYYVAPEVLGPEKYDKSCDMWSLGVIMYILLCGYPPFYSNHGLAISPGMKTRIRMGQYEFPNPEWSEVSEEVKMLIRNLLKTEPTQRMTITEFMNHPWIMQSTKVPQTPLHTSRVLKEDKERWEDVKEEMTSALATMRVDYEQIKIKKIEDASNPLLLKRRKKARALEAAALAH
Sequence of FGFR1(V561M)(h) (P11362 22-822 V561M): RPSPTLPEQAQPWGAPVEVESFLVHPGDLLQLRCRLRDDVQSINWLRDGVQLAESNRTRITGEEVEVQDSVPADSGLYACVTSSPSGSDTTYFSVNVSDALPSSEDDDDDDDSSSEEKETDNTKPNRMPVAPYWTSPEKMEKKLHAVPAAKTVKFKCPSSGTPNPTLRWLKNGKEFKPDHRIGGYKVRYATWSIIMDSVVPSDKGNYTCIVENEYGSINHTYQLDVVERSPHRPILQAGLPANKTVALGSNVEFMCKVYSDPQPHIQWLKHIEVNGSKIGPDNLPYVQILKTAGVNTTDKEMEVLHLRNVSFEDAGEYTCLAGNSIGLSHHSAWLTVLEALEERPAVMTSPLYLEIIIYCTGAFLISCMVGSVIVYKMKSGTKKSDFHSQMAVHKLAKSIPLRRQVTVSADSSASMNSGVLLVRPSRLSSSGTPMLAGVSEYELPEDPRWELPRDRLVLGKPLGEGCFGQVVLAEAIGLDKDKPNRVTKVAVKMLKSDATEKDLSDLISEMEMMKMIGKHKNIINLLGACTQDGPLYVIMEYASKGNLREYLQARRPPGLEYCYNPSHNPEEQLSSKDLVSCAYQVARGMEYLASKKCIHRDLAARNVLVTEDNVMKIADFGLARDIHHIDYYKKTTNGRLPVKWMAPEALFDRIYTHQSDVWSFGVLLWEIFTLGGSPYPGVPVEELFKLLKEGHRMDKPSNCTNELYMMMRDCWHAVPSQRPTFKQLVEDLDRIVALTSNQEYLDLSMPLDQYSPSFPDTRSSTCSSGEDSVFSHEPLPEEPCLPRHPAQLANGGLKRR
T10 sequence (P19525 whole entry): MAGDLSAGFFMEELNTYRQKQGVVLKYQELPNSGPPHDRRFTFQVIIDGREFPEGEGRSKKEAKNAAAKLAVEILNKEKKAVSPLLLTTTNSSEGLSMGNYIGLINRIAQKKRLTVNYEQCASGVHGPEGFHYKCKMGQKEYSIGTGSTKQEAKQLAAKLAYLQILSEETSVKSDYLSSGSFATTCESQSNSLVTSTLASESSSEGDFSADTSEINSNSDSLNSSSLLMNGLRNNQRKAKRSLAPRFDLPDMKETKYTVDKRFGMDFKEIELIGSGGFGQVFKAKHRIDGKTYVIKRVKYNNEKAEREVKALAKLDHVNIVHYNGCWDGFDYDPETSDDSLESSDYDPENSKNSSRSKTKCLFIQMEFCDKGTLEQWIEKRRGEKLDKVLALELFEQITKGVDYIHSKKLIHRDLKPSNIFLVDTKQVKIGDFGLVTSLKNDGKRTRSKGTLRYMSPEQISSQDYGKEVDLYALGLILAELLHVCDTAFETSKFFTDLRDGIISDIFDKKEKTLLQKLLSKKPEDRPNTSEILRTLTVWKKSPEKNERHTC
T5 sequence (P49760 whole entry): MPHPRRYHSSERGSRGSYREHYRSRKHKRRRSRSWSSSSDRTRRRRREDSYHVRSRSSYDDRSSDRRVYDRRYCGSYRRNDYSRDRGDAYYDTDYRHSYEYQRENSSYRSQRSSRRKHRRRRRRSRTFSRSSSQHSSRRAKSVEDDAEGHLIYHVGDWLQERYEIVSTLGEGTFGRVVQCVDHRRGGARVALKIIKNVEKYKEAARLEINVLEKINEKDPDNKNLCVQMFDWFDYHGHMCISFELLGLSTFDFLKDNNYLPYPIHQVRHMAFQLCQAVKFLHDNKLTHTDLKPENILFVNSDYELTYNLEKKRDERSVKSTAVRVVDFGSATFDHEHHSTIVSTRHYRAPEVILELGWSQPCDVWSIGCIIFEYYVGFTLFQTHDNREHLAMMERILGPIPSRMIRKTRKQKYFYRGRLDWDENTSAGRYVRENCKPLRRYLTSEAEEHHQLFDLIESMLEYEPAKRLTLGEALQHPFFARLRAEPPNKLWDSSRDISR

COc1cc(OC)c(Cl)c(-c2ccc3c(NC(=O)c4ccc(N5CCNC(C)(C)C5)cc4)n[nH]c3n2)c1Cl [3D185]
IC50 (FGFR1(V561M)(h); estimated from 372-kinase panel): < 0.01 µM | inhibition at 0.01 µM (FGFR1(V561M)(h); read-out: Inhibition rate (%)): 58% | inhibition at 0.1 µM (FGFR1(V561M)(h); read-out: Inhibition rate (%)): 94% | inhibition at 1 µM (FGFR1(V561M)(h); read-out: Inhibition rate (%)): 100% | inhibition at 0.01 µM (CaMKI(h); 10 nM): 11% | inhibition at 0.1 µM (CaMKI(h); 100 nM): 14% | inhibition at 1 µM (CaMKI(h); 1000 nM): 64% | inhibition at 0.01 µM (CDK2/cyclinE(h); 10 nM): -5% | inhibition at 0.1 µM (CDK2/cyclinE(h); 100 nM): 2% | inhibition at 1 µM (CDK2/cyclinE(h); 1000 nM): 10% | inhibition at 0.01 µM (CDK12/cyclinK(h); 10 nM): -6% | inhibition at 0.1 µM (CDK12/cyclinK(h); 100 nM): 4% | inhibition at 1 µM (CDK12/cyclinK(h); 1000 nM): 7% | inhibition at 0.01 µM (CHK2(R145W)(h); 10 nM): -17% | inhibition at 0.1 µM (CHK2(R145W)(h); 100 nM): -15% | inhibition at 1 µM (CHK2(R145W)(h); 1000 nM): -4% | inhibition at 0.01 µM (CLK2(h); 10 nM): 5% | inhibition at 0.1 µM (CLK2(h); 100 nM): 3% | inhibition at 1 µM (CLK2(h); 1000 nM): 7% | inhibition at 0.01 µM (cKit(h); 10 nM): 19% | inhibition at 0.1 µM (cKit(h); 100 nM): 35% | inhibition at 1 µM (cKit(h); 1000 nM): 76% | inhibition at 0.01 µM (EphA2(h); 10 nM): 13% | inhibition at 0.1 µM (EphA2(h); 100 nM): 24% | inhibition at 1 µM (EphA2(h); 1000 nM): 73% | inhibition at 0.01 µM (GRK2(h); 10 nM): 5% | inhibition at 0.1 µM (GRK2(h); 100 nM): 1% | inhibition at 1 µM (GRK2(h); 1000 nM): -4% | inhibition at 0.01 µM (MAPKAP-K2(h); 10 nM): 0% | inhibition at 0.1 µM (MAPKAP-K2(h); 100 nM): 10% | inhibition at 1 µM (MAPKAP-K2(h); 1000 nM): 0% | inhibition at 0.01 µM (PKR(h); 10 nM): -4% | inhibition at 0.1 µM (PKR(h); 100 nM): -3% | inhibition at 1 µM (PKR(h); 1000 nM): 0% | inhibition at 0.01 µM (TSSK4(h); 10 nM): -6% | inhibition at 0.1 µM (TSSK4(h); 100 nM): -10% | inhibition at 1 µM (TSSK4(h); 1000 nM): -9% | IC50 (M-NFS-60): 0.0167 ± 0.0025 µM | effect on MC38 tumor growth [1]: delayed tumor growth
